This note sets out measurements from patent publication US8618138B2, “Indole amide derivatives and related compounds for use in the treatment of neurodegenerative diseases” (Katholieke Universiteit Leuven, K.U. Leuven R&D, priority 2009, dated 2013).

The subject of one assay is M17-TAU P301L cells. Kind of assay: TAU cytotoxicity assay: LDH leakage of retinoic acid incubated M17-TAU P301L cells. The class given is cell-based, human. To be noted: Homo sapiens, 168 h, reduction of LDH activity of retinoic acid incubated M17-TAU P301L cells, 7 days. In outline:
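M17 neuroblastoma cells stably expressing human TAU P301L, seeded at 2500 cells/cm2 in Optimem with 1% FCS, then given 2.5 μM retinoic acid (stock before 1:1 addition) and grown 7 days at 37 °C. Cytotoxicity read as LDH leaked into medium; EC50 derived from these measurements.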
For orientation: Release of lactate dehydrogenase indicates damage to the cell membrane.

For assay [1], the system named is TAU and phospho-isoforms thereof. Kind of assay: In-vivo inhibition of pathological TAU-phosphorylation, Western analysis of soluble brain protein fractions. Also on record: species or system Human TAU R406W transgenic mice. An excerpt: Quantification of Western analyses of TAU and phospho-TAU species of the soluble protein fraction prepared from […] of all individual mice used in this study (n=10 for each treatment group). TAU signals of all individual mice were normalized against neuron specific enolase (NSE) using antibodies (monoclonal anti-NSE antibody, clone 37E4, Abcam) to correct for possible loading control differences. The graphs depict the mean normalised TAU signals±SEM. The TAU signals were obtained by using antibodies directed against:
(A) pan-TAU (anti-TAU monoclonal antibody (mAb) HT7, Thermo Scientific; detects all tau species independent of phosphorylation status),
(B) phosphorylated tau on pS202, T205 (AD2 anti-TAU antibody, Biorad) and unphosphorylated tau on pS202 (anti-TAU-1 antibody, clone PC1C6, Millipore), the graph depicts the ratio of AD2/TAU-1;
(C) phosphorylated tau on pT231 (AT180 anti-TAU mAb, Thermo Scientific), and
(D) phosphorylated tau on pT181 (AT270 anti-TAU mAb, Thermo Scientific).
Statistics: students two-tailed T-test*p<0.05, **p<0.01.
Human TAU R406W transgenic mice (Zhang et al, J. of Neuroscience 24(19):4657-4667, 2004) were treated once-a-day subcutaneously for 4 weeks with compound D5 (see table 1) dissolved in arachidin oil at a dose of 35 mg/kg. Correspondingly vehicle treated transgenics were included as controls. At the end of the treatment period mice were sacrificed and brainstem was stereotactically collected. Soluble protein fractions were prepared (Terwel et al, J Biol Chem 280(5):3963-73, 2005) from the brain stem and subjected to Western analysis using antibodies directed against TAU and several different phospho-isoforms thereof.

Setting [2] is: TAU R406W transgenic mice, 35 mg/kg subcutaneously once-a-day for 4 weeks, vs vehicle, Western blot of soluble protein fraction.

For orientation: EC50 means the midpoint of the concentration-response curve. Low values mean an effect from little substance, high ones a need for much substance.

In the assay with M17-TAU P301L cells, `O=C(NCCc1c[nH]c2ccc(Cl)cc12)c1cc(Cc2cc(F)ccc2F)on1` [Example D5, N-(2-(5-chloro-1H-indol-3-yl)ethyl)-5-(2,5-difluorobenzyl)isoxazole-3-carboxamide] had an EC50 of 12 nM. In addition, in assay [1] (setting [2]), the “Phosphorylation of threonine residue 181 of TAU (AT270, FIG. 3 D)” value is given as “not affected”; the “TAU phosphorylated at serine 202 and tyrosine 205 (ratio AD2/TAU-1, FIG. 3 B)” value is “robust and statistically significant reduction”; the “TAU phosphorylated at tyrosine residue 231 (AT180, FIG. 3 C)” value was “robust and statistically significant reduction”; the “total TAU levels (pan-TAU, HT7 antibody, FIG. 3 A)” value is “not statistically significant affected”. Besides, in assay [1] (Western analyses of TAU and phospho-TAU species, soluble protein fraction, n=10 per group), the “pathological TAU-species in-vivo (FIG. 3 legend)” value is given as “reduces pathological TAU-species in-vivo”.

With `O=C(NCCc1c[nH]c2ccc(Cl)cc12)c1noc(Cc2ccc(Cl)c(Cl)c2)n1` [Example D174, N-(2-(5-chloro-1H-indol-3-yl)ethyl)-5-(3,4-dichlorobenzyl)-1,2,4-oxadiazole-3-carboxamide], the EC50 with M17-TAU P301L cells stood at 282 nM. Turning to `O=C(NCCc1c[nH]c2ccc(Cl)cc12)c1noc(Cc2ccc(Cl)c(F)c2)n1` [Example D175, N-(2-(5-chloro-1H-indol-3-yl)ethyl)-5-(4-chloro-3-fluorobenzyl)-1,2,4-oxadiazole-3-carboxamide], in the assay with M17-TAU P301L cells, it took 94 nM to reach a half-maximal effect (EC50). Compound `CC(C)(C)c1ccc(Cc2nc(C(=O)NCCc3c[nH]c4ccc(Cl)cc34)no2)cc1` [Example D176, 5-(4-tert-butylbenzyl)-N-(2-(5-chloro-1H-indol-3-yl)ethyl)-1,2,4-oxadiazole-3-carboxamide] showed an EC50 with M17-TAU P301L cells of 100 nM. Still for that read-out and setting: the same measure for `COc1cccc(Cc2nc(C(=O)NCCc3c[nH]c4ccc(Cl)cc34)no2)c1` [Example D177, N-(2-(5-chloro-1H-indol-3-yl)ethyl)-5-(3-methoxybenzyl)-1,2,4-oxadiazole-3-carboxamide]: 29 nM; for `COc1ccc(Cc2nc(C(=O)NCCc3c[nH]c4ccc(Cl)cc34)no2)cc1OC` [Example D178, N-(2-(5-chloro-1H-indol-3-yl)ethyl)-5-(3,4-dimethoxybenzyl)-1,2,4-oxadiazole-3-carboxamide]: 125 nM; for `COc1ccc(OC)c(Cc2nc(C(=O)NCCc3c[nH]c4ccc(Cl)cc34)no2)c1` [Example D179, N-(2-(5-chloro-1H-indol-3-yl)ethyl)-5-(2,5-dimethoxybenzyl)-1,2,4-oxadiazole-3-carboxamide]: 51 nM.

`O=C(NCCc1c[nH]c2ccc(Cl)cc12)c1noc(Cc2cccs2)n1` [Example D180, N-(2-(5-chloro-1H-indol-3-yl)ethyl)-5-(thiophen-2-ylmethyl)-1,2,4-oxadiazole-3-carboxamide] came in with an EC50 in the assay with M17-TAU P301L cells of 103 nM. Against the preceding compound, the EC50 is about 2-fold higher. `Cc1ccc(Cc2nc(C(=O)NCCc3c[nH]c4ccc(Cl)cc34)no2)cc1` [Example D181, N-(2-(5-chloro-1H-indol-3-yl)ethyl)-5-(4-methylbenzyl)-1,2,4-oxadiazole-3-carboxamide] registered an EC50 in the assay on M17-TAU P301L cells of 48 nM. In the assay on M17-TAU P301L cells, `O=C(NCCc1c[nH]c2ccc(Cl)cc12)c1noc(Cc2cc(F)cc(F)c2)n1` [Example D182, N-(2-(5-chloro-1H-indol-3-yl)ethyl)-5-(3,5-difluorobenzyl)-1,2,4-oxadiazole-3-carboxamide] showed an EC50 of 11 nM. Regarding `COc1ccccc1Cc1nc(C(=O)NCCc2c[nH]c3ccc(Cl)cc23)no1` [Example D183, N-(2-(5-chloro-1H-indol-3-yl)ethyl)-5-(2-methoxybenzyl)-1,2,4-oxadiazole-3-carboxamide], a half-maximal response in the assay on M17-TAU P301L cells (EC50) required 47 nM.

For `Cc1cccc(Cc2nc(C(=O)NCCc3c[nH]c4ccc(Cl)cc34)no2)c1` [Example D184, N-(2-(5-chloro-1H-indol-3-yl)ethyl)-5-(3-methylbenzyl)-1,2,4-oxadiazole-3-carboxamide], a half-maximal effect in the assay with M17-TAU P301L cells (EC50) was put at 26 nM. Compared with the last compound, the EC50 is about 1.8-fold lower. The same measure, in the same setting: the same measure for `O=C(NCCc1c[nH]c2ccc(Cl)cc12)c1noc(Cc2ccc(OC(F)(F)F)cc2)n1` [Example D185, N-(2-(5-chloro-1H-indol-3-yl)ethyl)-5-(4-(trifluoromethoxy)benzyl)-1,2,4-oxadiazole-3-carboxamide]: 42 nM; for `O=C(NCCc1c[nH]c2ccc(Cl)cc12)c1noc(Cc2cccc(C(F)(F)F)c2)n1` [Example D186, N-(2-(5-chloro-1H-indol-3-yl)ethyl)-5-(3-(trifluoromethyl)benzyl)-1,2,4-oxadiazole-3-carboxamide]: 119 nM; for `O=C(NCCc1c[nH]c2ccc(Cl)cc12)c1noc(Cc2ccc(C(F)(F)F)cc2)n1` [Example D187, N-(2-(5-chloro-1H-indol-3-yl)ethyl)-5-(4-(trifluoromethyl)benzyl)-1,2,4-oxadiazole-3-carboxamide]: 32 nM. `O=C(NCCc1c[nH]c2ccc(Cl)cc12)c1noc(Cc2c(F)cccc2F)n1` [Example D188, N-(2-(5-chloro-1H-indol-3-yl)ethyl)-5-(2,6-difluorobenzyl)-1,2,4-oxadiazole-3-carboxamide]: a half-maximal effect with M17-TAU P301L cells (EC50) was put at 41 nM. The EC50 values of the last two compounds are within 1.5-fold of each other. Take `O=C(NCCc1c[nH]c2ccc(Cl)cc12)c1noc(Cc2ccc(F)cc2F)n1` [Example D189, N-(2-(5-chloro-1H-indol-3-yl)ethyl)-5-(2,4-difluorobenzyl)-1,2,4-oxadiazole-3-carboxamide]: in the assay with M17-TAU P301L cells, the EC50 is 15 nM. This EC50 lies about 2.7-fold lower than the previous one. On the same count and under the same terms, the same measure for `O=C(NCCc1c[nH]c2ccc(Cl)cc12)c1noc(Cc2cccc(Cl)c2)n1` [Example D190, N-(2-(5-chloro-1H-indol-3-yl)ethyl)-5-(3-chlorobenzyl)-1,2,4-oxadiazole-3-carboxamide]: 25 nM; for `O=C(NCCc1c[nH]c2ccc(Cl)cc12)c1noc(Cc2ccccc2Cl)n1` [Example D191, N-(2-(5-chloro-1H-indol-3-yl)ethyl)-5-(2-chlorobenzyl)-1,2,4-oxadiazole-3-carboxamide]: 25 nM. `Cc1ccccc1Cc1nc(C(=O)NCCc2c[nH]c3ccc(Cl)cc23)no1` [Example D192, N-(2-(5-chloro-1H-indol-3-yl)ethyl)-5-(2-methylbenzyl)-1,2,4-oxadiazole-3-carboxamide]: the EC50 in the assay on M17-TAU P301L cells is 53 nM. `O=C(NCCc1c[nH]c2ccc(Cl)cc12)c1noc(Cc2ccsc2)n1` [Example D193, N-(2-(5-chloro-1H-indol-3-yl)ethyl)-5-(thiophen-3-ylmethyl)-1,2,4-oxadiazole-3-carboxamide]: in the assay with M17-TAU P301L cells, the EC50 is 49 nM. As for `O=C(NCCc1c[nH]c2ccc(Cl)cc12)c1cc(C(=O)c2cc(F)ccc2F)on1` [Example D194, N-(2-(5-chloro-1H-indol-3-yl)ethyl)-5-(2,5-difluorobenzoyl)isoxazole-3-carboxamide], in the assay on M17-TAU P301L cells, the response was half-maximal at 113 nM (EC50).

In the assay with M17-TAU P301L cells, `O=C(NCCc1c[nH]c2ccc(Cl)cc12)c1cc(C(O)c2ccccc2)on1` (centres unmarked) [Example D195, N-(2-(5-chloro-1H-indol-3-yl)ethyl)-5-(hydroxy(phenyl)methyl)isoxazole-3-carboxamide] returned an EC50 of 101 nM. The compound `CCOCC1CC(C(=O)NCCc2c[nH]c3ccc(Cl)cc23)=NO1` (centres unmarked) [Example D216, N-(2-(5-chloro-1H-indol-3-yl)ethyl)-5-(ethoxymethyl)-4,5-dihydroisoxazole-3-carboxamide] came in with an EC50 with M17-TAU P301L cells of 77 nM. The EC50 values of the last two compounds are within 1.5-fold of each other.
